Here are results for ten compounds from PubChem BioAssay (NCI).

Test systems include K-562 leukemia; SNB-75 CNS; SF-539 CNS; MCF7 breast; NCI-H226 lung; CAKI-1 renal; ACHN renal; OVCAR-4 ovarian; DLD-1 colon; KM20L2 colon.
What all share (test): NCI anticancer screen, dose series, 48 h

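The compound was tested at five concentrations on cells cultured in 96-well plates, with a 48-hour exposure period. Abbreviation: GI50, concentration required for 50% inhibition of growth. TGI is the concentration that stops growth completely.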

Take `COc1ccc2c(c1)/C(=C\c1c[nH]c3ccc(OC)cc13)C(=O)N2`: the GI50 with K-562 leukemia is 2.21 µM; in the experiment with SNB-75 CNS, 1.94 µM; in the experiment on SF-539 CNS, 3.95 µM; in the experiment on MCF7 breast it was 2.65 µM; in the experiment on NCI-H226 lung it was 4.59 µM; with CAKI-1 renal, 2.13 µM. Besides, the GI50 is 2.93 µM with ACHN renal and 3.5 µM with OVCAR-4 ovarian. The TGI in the experiment on K-562 leukemia is 15.5 µM; in the experiment on SNB-75 CNS it was 9.22 µM; in the experiment with SF-539 CNS, 15.6 µM; with MCF7 breast, 13.1 µM; in the experiment on NCI-H226 lung it was 25.6 µM; in the experiment on CAKI-1 renal it was 13.3 µM. Also, the values for the TGI with ACHN renal and in the experiment with OVCAR-4 ovarian were 12.4 µM and 22.8 µM, respectively.

`O=C(Nc1ccccc1Cl)c1cccc(NC2=C(Cl)C(=O)N(Cc3ccccc3)C2=O)c1`: the GI50 with K-562 leukemia was 2.67 µM; with SNB-75 CNS, 3.55 µM; with SF-539 CNS it was 26.7 µM; in the experiment with MCF7 breast, 11.6 µM; in the experiment on NCI-H226 lung, 4.45 µM; in the experiment with CAKI-1 renal, 23.2 µM. Besides, the values for the GI50 in the experiment on ACHN renal and in the experiment with OVCAR-4 ovarian were 60.5 µM and 3.63 µM, respectively. Besides, the TGI with K-562 leukemia is 35.3 µM; with SNB-75 CNS it was greater than 100 µM; in the experiment with SF-539 CNS, 94.6 µM; with MCF7 breast it was 33.4 µM; with NCI-H226 lung, 46.4 µM; with CAKI-1 renal it was 66.9 µM. Moreover, the TGI in the experiment with ACHN renal was greater than 100 µM; in the experiment on OVCAR-4 ovarian, 75.8 µM.

`OCc1ccc(N2CCCC2)cc1Cl`: the GI50 with K-562 leukemia is 8.18 µM; in the experiment on SNB-75 CNS, 24.5 µM; with SF-539 CNS it was greater than 58.7 µM; in the experiment on MCF7 breast, 1.95 µM; with NCI-H226 lung, 0.146 µM; in the experiment with CAKI-1 renal, 14.3 µM. The GI50 was 29.2 µM in the experiment with ACHN renal and 1.83 µM with OVCAR-4 ovarian. Besides, the TGI was greater than 100 µM with K-562 leukemia; greater than 100 µM in the experiment on SNB-75 CNS; greater than 100 µM with SF-539 CNS; greater than 61.9 µM in the experiment on MCF7 breast; 0.365 µM with NCI-H226 lung; 50.3 µM with CAKI-1 renal. The values for the TGI with ACHN renal and with OVCAR-4 ovarian were greater than 75.3 µM and 12.3 µM, respectively.

For `Cc1cc(NC(=O)c2cnc(N3CCN(CCOCCOCCOCCOCCC(=O)N[C@H](C(=O)N4C[C@H](O)C[C@H]4C(=O)N[C@@H](C)c4ccc(-c5scnc5C)cc4)C(C)(C)C)CC3)cn2)c2ncccc2c1`, the GI50 in the experiment on K-562 leukemia is 3.1 µM; in the experiment on SNB-75 CNS, 2.1 µM; in the experiment with SF-539 CNS, 2.12 µM; in the experiment on MCF7 breast it was 3.14 µM; with NCI-H226 lung, 28.7 µM; in the experiment on CAKI-1 renal it was 9.33 µM. The results for the GI50 in the experiment with ACHN renal and with OVCAR-4 ovarian were 12 µM and 4.49 µM, respectively. In addition, the TGI with K-562 leukemia is greater than 100 µM; with SNB-75 CNS, 15 µM; in the experiment on SF-539 CNS, 4.68 µM; in the experiment on MCF7 breast, greater than 100 µM; in the experiment on NCI-H226 lung, greater than 100 µM; with CAKI-1 renal it was greater than 100 µM. Besides, the TGI is greater than 100 µM in the experiment with ACHN renal and 25 µM in the experiment on OVCAR-4 ovarian.

For the compound `NCCC(=O)NC(Cc1cnc[nH]1)C(=O)O` (stereo unspecified), the TGI in the experiment on K-562 leukemia, in the experiment with SNB-75 CNS, in the experiment on SF-539 CNS, in the experiment with MCF7 breast, in the experiment on NCI-H226 lung and in the experiment with CAKI-1 renal was greater than 100 µM each time. Moreover, the TGI in the experiment with ACHN renal and in the experiment on OVCAR-4 ovarian was greater than 100 µM each time.

In the case of `COc1cc2c(c(OC)c1OC)-c1c(cc3c(c1OC)OCO3)CC(C)C(C)(O)C2OC(=O)c1ccccc1` (stereo unspecified), the TGI in the experiment with K-562 leukemia, with SNB-75 CNS, in the experiment with SF-539 CNS, in the experiment with MCF7 breast, with NCI-H226 lung and with CAKI-1 renal was greater than 100 µM throughout. For the same compound, the TGI in the experiment with ACHN renal and in the experiment on OVCAR-4 ovarian was greater than 100 µM each time.

In the case of `COCCOCOC(C)(C)[C@H](CCOC(C)=O)O[Si](c1ccccc1)(c1ccccc1)C(C)(C)C`, the TGI in the experiment on K-562 leukemia is 28.8 µM; in the experiment with SNB-75 CNS, greater than 100 µM; with DLD-1 colon it was greater than 100 µM; in the experiment on NCI-H226 lung it was 19.8 µM; with KM20L2 colon, greater than 100 µM; with CAKI-1 renal, greater than 100 µM. The results for the TGI with ACHN renal and with OVCAR-4 ovarian were 51.1 µM and greater than 100 µM, respectively.

On to `O=S(=O)(NC1=NCCN1C(=S)SN1CCn2c1nsc2=S)c1cccc(OC(F)(F)F)c1`, for which the GI50 is 4.47 µM with K-562 leukemia; 16.2 µM with SNB-75 CNS; 19.8 µM with SF-539 CNS; 4.17 µM in the experiment with MCF7 breast; 16.2 µM in the experiment with NCI-H226 lung; 17.8 µM with CAKI-1 renal. Besides, the GI50 with ACHN renal was 13.5 µM; in the experiment on OVCAR-4 ovarian it was 12.5 µM. Further, the TGI in the experiment with K-562 leukemia is greater than 100 µM; in the experiment on SNB-75 CNS, 38.9 µM; with SF-539 CNS, 37.7 µM; with MCF7 breast, 17.2 µM; in the experiment on NCI-H226 lung it was 31.7 µM; with CAKI-1 renal, 43.5 µM. Besides, the figures for the TGI in the experiment with ACHN renal and with OVCAR-4 ovarian were 26.3 µM and 27.9 µM, respectively.

Regarding `CN(c1ccc(C#N)c(Cl)c1)C1CCC(NC(=O)c2ccc(N3CCN(C4CN(c5ccc6c(c5)C(=O)N(C5CCC(=O)NC5=O)C6=O)C4)CC3)cc2)CC1` (stereo unspecified), the GI50 in the experiment on K-562 leukemia, with SNB-75 CNS, in the experiment on SF-539 CNS, in the experiment on MCF7 breast, in the experiment with NCI-H226 lung and in the experiment on CAKI-1 renal was greater than 100 µM each time. Moreover, the GI50 with ACHN renal and in the experiment on OVCAR-4 ovarian was greater than 100 µM each time. The TGI in the experiment with K-562 leukemia, with SNB-75 CNS, in the experiment with SF-539 CNS, with MCF7 breast, in the experiment with NCI-H226 lung and in the experiment with CAKI-1 renal was greater than 100 µM throughout. For the same compound, the TGI with ACHN renal and in the experiment with OVCAR-4 ovarian was greater than 100 µM in each case.

As to `CCSc1nc(N)c(C#N)c(-c2ccco2)c1C#N`, the GI50 with K-562 leukemia was 43.7 µM; in the experiment with SNB-75 CNS, greater than 100 µM; with SF-539 CNS it was 23.3 µM; with MCF7 breast it was 15 µM; in the experiment with NCI-H226 lung it was 29.9 µM; with CAKI-1 renal it was 13.7 µM. Also, the GI50 in the experiment with ACHN renal was 16.9 µM; with OVCAR-4 ovarian it was greater than 100 µM. Besides, the TGI is greater than 100 µM in the experiment on K-562 leukemia; greater than 100 µM in the experiment on SNB-75 CNS; 69.3 µM with SF-539 CNS; greater than 100 µM in the experiment on MCF7 breast; greater than 100 µM in the experiment on NCI-H226 lung; 67.6 µM with CAKI-1 renal. Moreover, the TGI was 69.2 µM in the experiment with ACHN renal and greater than 100 µM in the experiment with OVCAR-4 ovarian.
